Measurements as given in patent publication US4795715A, “Aminoalkoxy or carboxyalkoxy derivatives of propranolol for immunoassay applications” (Drug Science Foundation, priority 1986, dated 1989).

System: propranolol antiserum (produced in Example 1)
Assay: Specificity (cross-reactivity) of the antiserum of Example 1: inhibition of 3H propranolol-antibody complex formation (radioimmunoassay)
Assay type: binding, rabbit
Settings: for relative efficiency of the compound with respect to propranolol as an inhibitor (percentage): propranolol = 100 %; for ID50 (amount of compound giving 50% inhibition of 3H-propranolol binding to antiserum): dl-[4-3H]-propranolol tracer
Description: Five New Zealand White rabbits were injected with an emulsion of the antigen as follows. For each animal, a solution was prepared consisting of 1 mg. of antigen dissolved in 0.8 ml. of 0.01M phosphate buffered saline at pH 7.4 and emulsified with 1.0 ml. of complete Freund's adjuvant. One hundred microliters of this emulsion was injected subcutaneously into each of the hind toe pads with the remainder divided between the hindquarters intramuscularly. One week later the animals were boosted with the same formulation, and additional boosts were administered at montly intervals thereafter. […] Bleedings were taken from the central ear artery seven to ten days after each boost, and weekly once the titre was sufficient. Blood was allowed to clot overnight at 4° C. and centrifuged to separate antiserum.
Radioactive dl-[4-^3 H]-propranolol with a specific activity of 21 C./mMol was obtained from the Radiochemical Center Amersham. This tritiated propranolol was diluted in the assay buffer just prior to use to obtain about 15000 cpm in 100 microliters of solution; 100 microliters of this preparation was added to each tube, including two background controls. The propranolol antiserum was diluted to 1:2000 in the buffer and 100 microliters of this solution was added to each tube with the exception of the background controls. The tubes were then vortexed, incubated at 37° C. for one hour, and cooled in an ice bath for 10 minutes prior to the addition of dextran-coated charcoal suspension.
Each tube was treated with one ml. of cold dextran-coated charcoal suspension and vortexed briefly, then incubated at 0° C. for 7-10 minutes prior to centrifugation at 5000 RPM in a refrigerated centriguge for 25 minutes. The supernatants were decanted into suitably labelled scintillation vials, dissolved in 10 ml. of counting cocktail and counted for 1-5 minutes. Counting cocktail was prepared by dissolving 40 g. of Omnifluor™ (purchased from New England Nuclear) and 2 liters of S-A-S Solubilizer™ (purchased from Research Products International Corp.) in 10 liters of toluene.

CC(C)NCC(O)COc1cccc2ccccc12 (racemic) [Propranolol]
relative efficiency of the compound with respect to propranolol as an inhibitor (percentage): 100%

CC(C)NCC(O)COc1ccc(O)c2ccccc12 (stereo not drawn) [4-Hydroxy-Propranolol]
cross reactivity with the antiserum (in words): significant cross reactivity
relative efficiency of the compound with respect to propranolol as an inhibitor (percentage): 30%

CC(C)NCC(O)COc1cccc2c(O)cccc12 (stereo not drawn) [5-Hydroxy-Propranolol]
cross reactivity with the antiserum (in words): cross-react
relative efficiency of the compound with respect to propranolol as an inhibitor (percentage): 90%

NCC(O)COc1cccc2ccccc12 (stereo not drawn) [Ndesisopropyl Propranolol Amino]
ID50 (amount of compound giving 50% inhibition of 3H-propranolol binding to antiserum): 780 ng
relative efficiency of the compound with respect to propranolol as an inhibitor (percentage): 0.06%

CC(C)NCC(COc1cccc2ccccc12)OC1OC(C(=O)O)C(O)C(O)C1O (stereo not drawn) [Propranolol Glucuromide]
ID50 (amount of compound giving 50% inhibition of 3H-propranolol binding to antiserum): 700 ng
relative efficiency of the compound with respect to propranolol as an inhibitor (percentage): 0.07%
